Experimental data reported in ChEMBL document CHEMBL1152356, “Solving the confusion of gnaphaliin structure: gnaphaliin A and gnaphaliin B identified as active principles of Gnaphalium liebmannii with tracheal smooth muscle relaxant properties” (J Nat Prod, 2009).

Experiment: Vasorelaxant activity against carbachol chloride-induced contraction in guinea pig trachea treated 30 mins after carbachol chloride challenge
Assay type: functional, tissue-based, Cavia porcellus

EC50	Compound	EC50 (read-out: EC50)
63.05 µg/mL	COc1cc(O)c2c(=O)c(O)c(-c3ccccc3)oc2c1OC [GNAPHALIIN B]	–
–	Cn1c(=O)c2[nH]cnc2n(C)c1=O [AMINOPHYLLINE]	534 µM
43.1 µg/mL	COc1c(-c2ccccc2)oc2c(OC)c(O)cc(O)c2c1=O [GNAPHALIIN]	–
